These results are taken from ChEMBL document CHEMBL1123200 (J Med Chem, 1986).

The species entered for assay [1] is Rattus norvegicus. The assay is described as follows: Inhibition was measured for [3H]GABA-uptake from rat synaptosomal membrane. It is filed as functional.
Assay [2] is filed under the species Rattus norvegicus.
For assay [3], the species on record is Rattus norvegicus. The source holds these as a separate data set.

As a reminder, the Ki is the dissociation constant of the complex between target and ligand, obtained from inhibition or displacement. Read a low Ki as a stronger hold on the target. `O=C(O)C1=CC(=C(c2ccccc2)c2ccccc2)CNC1` displayed a Ki in the assay filed under Rattus norvegicus [1] of 104 µM. Same read-out and setting: for `O=C(O)C1CCCNC1` (stereo not given) [NIPECOTIC ACID] the value was 3.8 µM. For orientation: Km means the concentration of substrate that gives half-maximal velocity. Take `NCCCC(=O)O`: the Vmax (pM min-1 mg-1) in the assay listed under Rattus norvegicus [2] was determined as 881. The Km in the assay listed under Rattus norvegicus [3] worked out at 4.3 µM. Compound `CN1CC(C(=O)O)=CC(=C(c2ccccc2)c2ccccc2)C1` returned a Ki in the assay filed under Rattus norvegicus [1] of 12.9 µM.
